Source: PubChem BioAssay (NCI)
Values joined by “and” are separate entries in the source; they are usually repeats but may differ in a detail not shown here. Identical values can stand only once.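 96-well plates; 48 h exposure; 5 concentrations. Endpoints by linear interpolation between flanking doses. Not reached: highest tested concentration assigned. Abbreviation: GI50, concentration required for 50% inhibition of growth. TGI: concentration producing complete growth inhibition.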

Legend:
Test in all cases: growth of human tumour cells (NCI), 48 h
786-0 renal = test system: 786-0 renal
A498 renal = test system: A498 renal
ACHN renal = test system: ACHN renal
CAKI-1 renal = test system: CAKI-1 renal
CCRF-CEM leukemia = test system: CCRF-CEM leukemia
COLO 205 colon = test system: COLO 205 colon
DMS 114 small cell lung = test system: DMS 114 small cell lung
DMS 273 small cell lung = test system: DMS 273 small cell lung
EKVX NSCLC = test system: EKVX NSCLC
HCC-2998 colon = test system: HCC-2998 colon
HCT-116 colon = test system: HCT-116 colon
HL-60(TB) leukemia = test system: HL-60(TB) leukemia
HOP-62 NSCLC = test system: HOP-62 NSCLC
HOP-92 NSCLC = test system: HOP-92 NSCLC
HS 578T breast = test system: HS 578T breast
HT29 colon = test system: HT29 colon
IGROV1 ovarian = test system: IGROV1 ovarian
K-562 leukemia = test system: K-562 leukemia
KM12 colon = test system: KM12 colon
LXFL 529 NSCLC = test system: LXFL 529 NSCLC
M19-MEL melanoma = test system: M19-MEL melanoma
MALME-3M melanoma = test system: MALME-3M melanoma
MDA-MB-231 breast = test system: MDA-MB-231 breast
MDA-MB-435 = test system: MDA-MB-435
MOLT-4 leukemia = test system: MOLT-4 leukemia
NCI-H226 lung = test system: NCI-H226 lung
NCI-H23 lung = test system: NCI-H23 lung
NCI-H522 lung = test system: NCI-H522 lung
NCI/ADR-RES ovarian = test system: NCI/ADR-RES ovarian
OVCAR-3 ovarian = test system: OVCAR-3 ovarian
OVCAR-4 ovarian = test system: OVCAR-4 ovarian
OVCAR-5 ovarian = test system: OVCAR-5 ovarian
PC-3 prostate = test system: PC-3 prostate
RXF 393 renal = test system: RXF 393 renal
RXF-631 renal = test system: RXF-631 renal
SF-268 CNS = test system: SF-268 CNS
SF-295 CNS = test system: SF-295 CNS
SF-539 CNS = test system: SF-539 CNS
SK-MEL-2 melanoma = test system: SK-MEL-2 melanoma
SK-MEL-5 melanoma = test system: SK-MEL-5 melanoma
SK-OV-3 ovarian = test system: SK-OV-3 ovarian
SN12C renal = test system: SN12C renal
SNB-19 CNS = test system: SNB-19 CNS
SNB-75 CNS = test system: SNB-75 CNS
SW-620 colon = test system: SW-620 colon
T-47D breast = test system: T-47D breast
TK-10 renal = test system: TK-10 renal
U251 CNS = test system: U251 CNS
UACC-257 melanoma = test system: UACC-257 melanoma
UACC-62 melanoma = test system: UACC-62 melanoma
UO-31 renal = test system: UO-31 renal
XF 498 CNS = test system: XF 498 CNS

For `CN1C(=O)CC2(C)c3cc(O)ccc3N(C)C12` (stereo not drawn), the GI50 (786-0 renal) was 23.8 µM, the TGI (786-0 renal) was 58.1 µM and 28.6 µM and the GI50 (A498 renal) was > 75 µM. For the same compound, the TGI (A498 renal) was > 75 µM and 68.2 µM, the GI50 (ACHN renal) was 25.6 µM and the TGI (ACHN renal) was 75 µM and > 100 µM. For the same compound, the GI50 (CAKI-1 renal) was 32.4 µM, the TGI (CAKI-1 renal) was 63.5 µM and > 100 µM and the GI50 (CCRF-CEM leukemia) was 9.66 µM. For the same compound, the TGI (CCRF-CEM leukemia) was 40.8 µM and 62.7 µM, the GI50 (COLO 205 colon) was 24.1 µM and the TGI (COLO 205 colon) was 75 µM and 63.1 µM. For the same compound, the TGI (DMS 114 small cell lung) was > 100 µM, the TGI (DMS 273 small cell lung) was > 100 µM and the GI50 (EKVX NSCLC) was > 75 µM. For the same compound, the TGI (EKVX NSCLC) was > 75 µM and 44.2 µM, the GI50 (HCC-2998 colon) was > 75 µM and the TGI (HCC-2998 colon) was > 100 µM. The GI50 (HCT-116 colon) was 22.8 µM, the TGI (HCT-116 colon) was 51.8 µM and 42.1 µM and the GI50 (HL-60(TB) leukemia) was 14.2 µM. For the same compound, the TGI (HL-60(TB) leukemia) was 31.5 µM and 70 µM, the TGI (HOP-62 NSCLC) was 60.7 µM and the GI50 (HOP-92 NSCLC) was 18.4 µM. For the same compound, the TGI (HOP-92 NSCLC) was 57.9 µM and > 95.9 µM, the GI50 (HS 578T breast) was 23.7 µM and the TGI (HS 578T breast) was 69.3 µM and > 90.2 µM. For the same compound, the GI50 (HT29 colon) was 21.4 µM, the TGI (HT29 colon) was 64.5 µM and 51 µM and the TGI (IGROV1 ovarian) was 75 µM and 68.8 µM. For the same compound, the GI50 (K-562 leukemia) was 11.6 µM, the TGI (K-562 leukemia) was 31.3 µM and 70.8 µM and the GI50 (KM12 colon) was 42.6 µM. The TGI (KM12 colon) was 75 µM and 42.7 µM, the TGI (LXFL 529 NSCLC) was > 59.2 µM and the TGI (M19-MEL melanoma) was 46.2 µM. The GI50 (MALME-3M melanoma) was > 75 µM, the TGI (MALME-3M melanoma) was > 75 µM and 93.5 µM and the TGI (MDA-MB-231 breast) was 40.6 µM and 34.1 µM. For the same compound, the GI50 (MDA-MB-435) was 9.51 µM, the TGI (MDA-MB-435) was 19.7 µM and 28.4 µM and the TGI (MOLT-4 leukemia) was 44.7 µM and 40.1 µM. For the same compound, the GI50 (NCI-H226 lung) was 19.5 µM, the TGI (NCI-H226 lung) was 54.4 µM and 71.9 µM and the GI50 (NCI-H23 lung) was 25.7 µM. For the same compound, the TGI (NCI-H23 lung) was 75 µM and 61.9 µM, the GI50 (NCI-H522 lung) was 15.6 µM and the TGI (NCI-H522 lung) was 33.2 µM and 60 µM. For the same compound, the GI50 (NCI/ADR-RES ovarian) was 17.2 µM, the TGI (NCI/ADR-RES ovarian) was 75 µM and 34.3 µM and the GI50 (OVCAR-3 ovarian) was 16.1 µM. The TGI (OVCAR-3 ovarian) was 32 µM and 30.9 µM, the TGI (OVCAR-4 ovarian) was 10.6 µM and the TGI (OVCAR-5 ovarian) was 59.6 µM. The GI50 (PC-3 prostate) was > 75 µM, the TGI (PC-3 prostate) was > 100 µM and the GI50 (RXF 393 renal) was 48.4 µM. The TGI (RXF 393 renal) was 75 µM and 66.5 µM, the TGI (RXF-631 renal) was > 100 µM and the GI50 (SF-268 CNS) was 38.6 µM. For the same compound, the TGI (SF-268 CNS) was 75 µM and 60.6 µM, the GI50 (SF-295 CNS) was 13 µM and the TGI (SF-295 CNS) was 23.7 µM and 54.9 µM. The GI50 (SF-539 CNS) was 14.5 µM, the TGI (SF-539 CNS) was 26.9 µM and > 76.5 µM and the GI50 (SK-MEL-2 melanoma) was > 75 µM. The TGI (SK-MEL-2 melanoma) was > 94.3 µM, the GI50 (SK-MEL-5 melanoma) was 54.1 µM and the TGI (SK-MEL-5 melanoma) was 75 µM and 50.5 µM. For the same compound, the GI50 (SK-OV-3 ovarian) was > 75 µM, the TGI (SK-OV-3 ovarian) was > 100 µM and the TGI (SN12C renal) was 29.6 µM and 23.3 µM. For the same compound, the GI50 (SNB-19 CNS) was > 75 µM, the TGI (SNB-19 CNS) was > 75 µM and 68.1 µM and the GI50 (SNB-75 CNS) was > 75 µM. The TGI (SNB-75 CNS) was > 75 µM and 68.3 µM, the GI50 (SW-620 colon) was 13.9 µM and the TGI (SW-620 colon) was 28.9 µM and 42.6 µM. For the same compound, the GI50 (T-47D breast) was > 75 µM, the TGI (T-47D breast) was > 91.2 µM and the GI50 (TK-10 renal) was > 75 µM. For the same compound, the TGI (TK-10 renal) was > 100 µM, the GI50 (U251 CNS) was 14.4 µM and the TGI (U251 CNS) was 25 µM and 31.2 µM. The TGI (UACC-257 melanoma) was > 85.9 µM, the TGI (UACC-62 melanoma) was 38.6 µM and 45.5 µM and the TGI (UO-31 renal) was > 90.9 µM. For the same compound, the TGI (XF 498 CNS) was 33 µM.
